In ChEMBL document CHEMBL4825760, “Interleukin-17A Peptide Aptamers with an Unexpected Binding Moiety Selected by cDNA Display under Heterogenous Conditions” (ACS Med Chem Lett, 2021):
Calls of active or inactive are those of the source. The rule behind the calls is not given here. *1 amine or outer side, *2 acyl side, *3 side chain or, on linkers, in order; H or OH if unused. Where a SMILES comes first, the peptide text is derived from it. Bridges are numbered along the chain shown (N, C = ends). oXylylene = c1ccc(C[*:2])c(C[*:1])c1

Legend:
Interleukin-17A [1] = molecular target: T1, Interleukin-17A (Homo sapiens, UniProt Q16552); assay: Binding affinity to human IL-17A assessed as dissociation constant in PBS-T measured after 60 mins by Biolayer interferometry
T1 sequence (Q16552 whole entry): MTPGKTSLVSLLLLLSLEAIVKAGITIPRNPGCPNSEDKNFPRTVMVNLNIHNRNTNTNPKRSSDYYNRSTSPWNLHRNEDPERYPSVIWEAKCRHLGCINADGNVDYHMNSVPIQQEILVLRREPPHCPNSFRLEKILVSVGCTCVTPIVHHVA

[2] = molecular target: T2, Interleukin-17A (Mus musculus) (UniProt Q62386); assay: Binding affinity to mouse IL-17A
T2 sequence (whole entry): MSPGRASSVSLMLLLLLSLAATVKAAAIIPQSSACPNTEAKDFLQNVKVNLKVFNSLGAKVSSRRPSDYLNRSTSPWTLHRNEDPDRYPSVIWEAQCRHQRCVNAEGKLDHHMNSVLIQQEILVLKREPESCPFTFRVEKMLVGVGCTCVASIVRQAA

[3] = Stability of the compound in 50% human serum assessed as compound decomposition incubated for 24 hrs by SDS-PAGE analysis
[4] = molecular target: T3, Interleukin-17F (Homo sapiens) (UniProt Q96PD4); assay: Binding affinity to human IL-17F
T3 sequence (whole entry): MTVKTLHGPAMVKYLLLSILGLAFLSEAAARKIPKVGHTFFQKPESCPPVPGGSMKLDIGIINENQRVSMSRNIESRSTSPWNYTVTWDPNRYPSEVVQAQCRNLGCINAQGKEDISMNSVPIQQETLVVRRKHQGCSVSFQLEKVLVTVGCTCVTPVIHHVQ

Interleukin-17A [5] = molecular target: T1, Interleukin-17A; assay: Binding affinity to biotinylated human IL-17A by SPR analysis

Kd (Interleukin-17A [1])	metabolised at 24 h [3] [%]	Structure (SMILES)	other results
Not Active		CC(C)C[C@H](NC(=O)[C@H](C)NC(=O)[C@@H](NC(=O)[C@H](CC(C)C)NC(=O)[C@H](CC(C)C)NC(=O)[C@H](CCC(=O)O)NC(=O)[C@@H](N)CS)[C@@H](C)O)C(=O)NCC(=O)N[C@@H](Cc1ccc(O)cc1)C(=O)N1CCC[C@H]1C(=O)N[C@H](C(=O)N[C@@H](Cc1ccc(O)cc1)C(=O)N[C@@H](CS)C(=O)O)C(C)C (H-CELLTALGYPVYC-OH)	
Not Active		CC(C)C[C@H](NC(=O)[C@H](CCC(=O)O)NC(=O)[C@@H](N)CS)C(=O)N[C@@H](CC(C)C)C(=O)N[C@H](C(=O)N[C@@H](Cc1ccccc1)C(=O)N[C@@H](C)C(=O)NCC(=O)N[C@@H](Cc1ccc(O)cc1)C(=O)N1CCC[C@H]1C(=O)N[C@H](C(=O)N[C@@H](Cc1ccc(O)cc1)C(=O)N[C@@H](CS)C(=O)O)C(C)C)[C@@H](C)O (H-CELLTFAGYPVYC-OH)	
	9.5	CC(C)C[C@H](NC(=O)[C@H](Cc1ccccc1)NC(=O)[C@@H](NC(=O)[C@H](CC(C)C)NC(=O)[C@H](CC(C)C)NC(=O)[C@H](CCC(=O)O)NC(=O)[C@@H](N)CS)[C@@H](C)O)C(=O)NCC(=O)N[C@@H](Cc1ccc(O)cc1)C(=O)N1CCC[C@H]1C(=O)N[C@H](C(=O)N[C@@H](Cc1ccc(O)cc1)C(=O)N[C@@H](CS)C(=O)O)C(C)C (H-CELLTFLGYPVYC-OH)	Activity [2]: Active; Activity [4]: inactive
	30.5	CC(C)C[C@@H]1NC(=O)[C@H](Cc2ccccc2)NC(=O)[C@H]([C@@H](C)O)NC(=O)[C@H](CC(C)C)NC(=O)[C@H](CC(C)C)NC(=O)[C@H](CCC(=O)O)NC(=O)[C@@H](N)CSCc2ccccc2CSC[C@@H](C(=O)O)NC(=O)[C@H](Cc2ccc(O)cc2)NC(=O)[C@H](C(C)C)NC(=O)[C@@H]2CCCN2C(=O)[C@H](Cc2ccc(O)cc2)NC(=O)CNC1=O (H-CELLTFLGYPVYC-OH; linker 1-13 via oXylylene)	
		CC(C)C[C@@H]1NC(=O)[C@H](Cc2ccccc2)NC(=O)[C@H]([C@@H](C)O)NC(=O)[C@H](CC(C)C)NC(=O)[C@H](CC(C)C)NC(=O)[C@H](CCC(=O)O)NC(=O)[C@@H](NC(=O)[C@H](CO)NC(=O)CN)CSSC[C@@H](C(=O)NCC(=O)NCC(=O)NCC(=O)N[C@@H](CO)C(=O)N[C@@H](Cc2cnc[nH]2)C(=O)N[C@@H](Cc2cnc[nH]2)C(=O)N[C@@H](Cc2cnc[nH]2)C(=O)N[C@@H](Cc2cnc[nH]2)C(=O)N[C@@H](Cc2cnc[nH]2)C(=O)N[C@@H](Cc2cnc[nH]2)C(=O)O)NC(=O)[C@H](Cc2ccc(O)cc2)NC(=O)[C@H](C(C)C)NC(=O)[C@@H]2CCCN2C(=O)[C@H](Cc2ccc(O)cc2)NC(=O)CNC1=O (H-GSCELLTFLGYPVYCGGGSHHHHHH-OH; disulfide 3-15)	Kd (Interleukin-17A [5]): Not Active
